These compounds were tested against T1, G1 APOL1 (Homo sapiens, UniProt O14791, I384M/S342G) (assay: Acute APOL1 Thallium Assay with inducible stable clones of HEK 293 cells). Conditions: HEK 293 T-Rex cells expressing G1 APOL1; read-out: Thallium Assay (IC50).
T1 construct: expressed in transfected cells
T1 sequence (O14791 28-398 S342G/I384M): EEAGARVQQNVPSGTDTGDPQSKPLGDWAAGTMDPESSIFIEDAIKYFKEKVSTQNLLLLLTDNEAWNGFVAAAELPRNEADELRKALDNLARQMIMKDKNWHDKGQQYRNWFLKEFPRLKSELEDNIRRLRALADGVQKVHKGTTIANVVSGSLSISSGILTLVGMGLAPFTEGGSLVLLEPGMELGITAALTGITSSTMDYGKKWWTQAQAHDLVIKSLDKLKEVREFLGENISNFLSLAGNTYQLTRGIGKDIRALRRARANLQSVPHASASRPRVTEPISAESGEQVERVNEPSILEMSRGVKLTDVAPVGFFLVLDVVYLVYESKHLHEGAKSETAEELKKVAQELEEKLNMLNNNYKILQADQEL
Type: cell-based
From the text: Acute APOL1 Thallium Assay with Inducible Stable Clones of HEK 293 Cells
Apolipoprotein L1 (APOL1) proteins form potassium-permeable cation pores in the plasma membrane. APOL1 risk variants (G1 and G2) induce greater potassium flux than G0 in HEK293 cells. This assay exploits the permeability of thallium (Tl+) through ligand-gated potassium channels. The dye produces a bright fluorescent signal upon binding to Tl+ conducted through potassium channels. The intensity of the Tl+ signal is proportional to the number of potassium channels in the open state. Therefore, it provides a functional indication of the potassium channel activities. During the initial dye-loading step, the Tl+ indicator dye as an acetoxymethyl (AM) ester enters the cells through passive diffusion. Cytoplasm esterases cleave the AM ester and relieve its active thallium-sensitive form. The cells are then stimulated with Tl+. The increase of fluorescence in the assay represents the influx of Tl+ into the cell specifically through the potassium channel (i.e. through APOL1 pores), providing a functional measurement of potassium channel/pore activity. The Thallium assay is conducted with cells expressing G1 APOL1.
APOL1 Cell Line (HEK T-Rex Stable Inducible Cell Line) • HEK T-Rex System • Tetracycline (Tet) inducible mammalian expression system. • Stably express the Tet repressor to regulate transcription. • Expression under the full-length CMV promoter. • APOL1 stable inducible cell line Clone used: G1 DC3.25
Tissue Culture Media • Cell Culture Medium • DMEM+10% FBS+P/S+5 μg/mL blasticidin+1 μg/mL puromycin. • 500 mL DMEM+55 mL FBS+5 mL P/S+280 μL blasticidin S HCl (10 mg/mL)+56 μL puromycin (10 mg/mL). • Cell Assay Medium • DMEM with 2% FBS+pen strep.
Instruments and Equipment • Nuaire cell culture hood, Cat. No. 540-600 • 37° C./5% CO2 incubator link to robotic arm, Liconic: STX110 • Molecular Devices FLIPR^Tetra High throughput cellular screening system, Cat. No. FT0324, Molecular Devices • ThermoFisher MultiDrop 384, Cat. No. 5840300 • Biotek Microfill, Cat. No. ASF1000A-4145 • BioRad TC10 cell counter, Cat. No. 145-0010 Assay Procedures
Cells Scaled Up from Frozen Vials • APOL1 G1 3.25 (HEK293 T-Rex) frozen vials: 5 million cells per vial • Step 1, Day 1: Defrost frozen vial into T-225. • Step 2, Day 5: (when 85% confluent): Split one T-225 at 3×10^6 cells per flask. • Step 3, Day 8: Splits cells to set up for the assay plates as described below.
T-Rex APOL1 HEK cells are split twice per week to keep the confluence state below 85% of the culture flask surface area. Cells can be kept until passage 25. • Cell Culture Medium • DMEM high glucose+10% FBS, +P/S, +5 μg/mL blasticidin, +1 μg/mL puromycin. • 500 mL DMEM, +55 mL FBS, +5 mL P/S, +280 μL blasicidin 10 mg/mL, +56 μL Puromycin 10 mg/mL. • Assay Media • Opti-MEM reduced serum medium from Invitrogen.
Preparation of Cell Assay Plates • Culture medium is removed from the x cm^2 T-flask by aspiration. • The cell monolayer is rinsed with PBS 1× at room temperature. PBS is removed by aspiration. • Cells are trypsinized using Trypsin. • The flasks are incubated at room temperature for 2-3 minutes. • Complete DMEM medium is then added. Cell suspension is then transferred to a 50 mL Falcon polypropylene tube. • Cells are then counted using a Biorad TC10 cell counter and the required amount of cells are centrifuged at 1200 RPM for 5 minutes. Required amount is 1.3×10^6 cells/mL APOL1 T-Rex HEK cells. • The pellet is suspended in the assay medium. • Using the MultiDrop, add 20 μL to each well (corresponds to 26000 cells total per well) of a 384-well black, transparent, flat bottom Poly-D coated plate. • Tetracycline as prepared in the following section is added to the cells before plating to induce APOL1 expression. • Plates are left at room temperature for 20 to 30 minutes before incubation at 37° C. and 5% CO2. […]

Structure (SMILES)	IC50 [nM]
CC1(C(=O)NCCO)CC(c2c(-c3ccc(F)cc3)[nH]c3c(F)cc(F)cc23)C1 (mixture of isomers) [Compound 283]	250 to 1000
O=C(CNC(=O)[C@H]1C[C@H](c2c(-c3ccc(F)cc3)[nH]c3c(F)cc(F)cc32)C1)NCCO [Compound 231]	> 1000
O=C(CNC(=O)[C@H]1C[C@H](c2c(-c3ccc(F)cc3)[nH]c3c(F)cc(F)cc32)C1)NC[C@H](O)C(F)(F)F [Compound 234]	> 1000
O=C(NCCn1cncn1)[C@H]1C[C@@H](c2c(-c3ccc(F)cc3)[nH]c3c(F)cc(F)cc32)C1 [Compound 264]	> 1000
Cn1nccc1CNC(=O)[C@H]1C[C@@H](c2c(-c3ccc(F)cc3)[nH]c3c(F)cc(F)cc32)C1 [Compound 265]	> 1000
O=C(NC(CO)CO)[C@H]1C[C@@H](c2c(-c3ccc(F)cc3)[nH]c3c(F)cc(F)cc32)C1 [Compound 241]	> 1000
Cn1cnc(CNC(=O)C2(F)CC(c3c(-c4ccc(F)cc4)[nH]c4c(F)cc(F)cc34)C2)c1 (stereo not shown) [Compound 286]	< 250

Second part, the compound after the results:

IC50 [nM]	Structure (SMILES)
> 1000	O=C(N[C@@H]1CCOC1)[C@H]1C[C@@H](c2c(-c3ccc(F)cc3)[nH]c3c(F)cc(F)cc32)C1 [Compound 269]
> 1000	C[C@H](CO)NC(=O)[C@H]1C[C@@H](c2c(-c3ccc(F)cc3)[nH]c3c(F)cc(F)cc32)C1 [Compound 272]
250 to 1000	O=C(NCC(F)(F)F)[C@H]1C[C@@H](c2c(-c3ccc(F)cc3)[nH]c3c(F)cc(F)cc32)C1 [Compound 260]
> 1000	O=C1CN(C(=O)[C@H]2C[C@@H](c3c(-c4ccc(F)cc4)[nH]c4c(F)cc(F)cc43)C2)CCN1 [Compound 275]
> 1000	O=C1NC[C@@H](O)[C@@H]1NC(=O)[C@H]1C[C@@H](c2c(-c3ccc(F)cc3)[nH]c3c(F)cc(F)cc32)C1 [Compound 277]
> 1000	O=C1NCC[C@H]1NC(=O)[C@H]1C[C@@H](c2c(-c3ccc(F)cc3)[nH]c3c(F)cc(F)cc32)C1 [Compound 236]
250 to 1000	CC(C)(CO)NC(=O)[C@H]1C[C@@H](c2c(-c3ccc(F)cc3)[nH]c3c(F)cc(F)cc32)C1 [Compound 256]

Same assay, conditions: Table 24, Compounds 287 to 465; read-out: Thallium Assay (IC50)

Structure (SMILES)	IC50 [nM]
CC1(C)CC(C)(NC(=O)NC[C@H]2C[C@H](c3c(-c4ccc(F)cc4)[nH]c4c(F)cc(F)cc43)C2)C(=O)O1 (mixture of isomers) [Compound 392]	> 1000
O=C(NC[C@H]1C[C@H](c2c(-c3ccc(F)cc3)[nH]c3c(F)cc(F)cc32)C1)NC1CC(O)C1 (stereo partly shown) [Compound 420]	> 1000
Cc1cnc(CNC(=O)O[C@H]2C[C@H](c3c(-c4ccc(F)cc4)[nH]c4c(F)cc(F)cc43)C2)o1 [Compound 374]	> 1000
O=C(NC[C@H](O)C(F)(F)F)NC[C@H]1C[C@H](c2c(-c3ccc(F)cc3)[nH]c3c(F)cc(F)cc32)C1 [Compound 406]	> 1000
CC(O)C(C)NC(=O)O[C@H]1C[C@H](c2c(-c3ccc(F)cc3)[nH]c3c(F)cc(F)cc32)C1 (mixture of isomers) [Compound 363]	> 1000
NC(=O)C(CO)NCC1CC(c2c(-c3ccc(F)cc3)[nH]c3c(F)cc(F)cc23)C1 (stereo not shown) [Compound 437]	250 to 1000
CNC(=O)C(C)NCC1CC(c2c(-c3ccc(F)cc3)[nH]c3c(F)cc(F)cc23)C1 (mixture of isomers) [Compound 436]	250 to 1000
CC(C)(C)[C@H](CO)NC(=O)NC[C@H]1C[C@H](c2c(-c3ccc(F)cc3)[nH]c3c(F)cc(F)cc32)C1 [Compound 416]	> 1000
CCNC(=O)N1CC(c2c(-c3ccc(F)cc3)[nH]c3c(F)cc(F)cc23)C1 [Compound 464, 3-[5,7-difluoro-2-(4-fluorophenyl)-1H-indol-3-yl]-N-ethyl-azetidine-1-carboxamide]	250 to 1000
O=C(CC1CC(c2c(-c3ccc(F)cc3)[nH]c3c(F)cc(F)cc23)C1)NC1(CO)CCC1 (stereo not shown) [Compound 452, 2-[3-[5,7-difluoro-2-(4-fluorophenyl)-1H-indol-3-yl]cyclobutyl]-N-[1-(hydroxymethyl)cyclobutyl]acetamide]	> 1000
Cc1ccc(CNC(=O)O[C@H]2C[C@H](c3c(-c4ccc(F)cc4)[nH]c4c(F)cc(F)cc43)C2)o1 [Compound 375]	> 1000
C[C@@H](NCC1CC(c2c(-c3ccc(F)cc3)[nH]c3c(F)cc(F)cc23)C1)C(=O)N(C)C (stereo partly shown) [Compound 438]	> 1000
CC(CO)NC(=O)O[C@H]1C[C@H](c2c(-c3ccc(F)cc3)[nH]c3c(F)cc(F)cc32)C1 (mixture of isomers) [Compound 356]	250 to 1000
O=C(NC[C@H]1C[C@H](c2c(-c3ccc(F)cc3)[nH]c3c(F)cc(F)cc32)C1)N[C@H]1C[C@H](O)C1 [Compound 411]	> 1000
O=C(CC1CC(c2c(-c3ccc(F)cc3)[nH]c3c(F)cc(F)cc23)C1)N[C@@H](CO)C(F)(F)F (stereo partly shown) [Compound 462]	> 1000
CNC(=O)CN[C@H]1C[C@H](c2c(-c3ccc(F)cc3)[nH]c3c(F)cc(F)cc32)C1 [Compound 291]	250 to 1000
CON(C)C(=O)CNC[C@H]1C[C@H](c2c(-c3ccc(F)cc3)[nH]c3c(F)cc(F)cc32)C1 [Compound 450]	250 to 1000
CC(C)(NCC1CC(c2c(-c3ccc(F)cc3)[nH]c3c(F)cc(F)cc23)C1)C(N)=O (stereo not shown) [Compound 440]	> 1000
O=C(NCCO)NC[C@H]1C[C@H](c2c(-c3ccc(F)cc3)[nH]c3c(F)cc(F)cc32)C1 [Compound 393]	> 1000

The next lines start with the values.

IC50 [nM]	Structure (SMILES)
> 1000	O=C(N[C@@H](CO)C(F)(F)F)C1CC(Cc2c(-c3ccc(F)cc3)[nH]c3c(F)cc(F)cc23)C1 (stereo partly shown) [Compound 306]
> 1000	COC1(CNC(=O)C2CC(Cc3c(-c4ccc(F)cc4)[nH]c4c(F)cc(F)cc34)C2)CCOC1 (stereo not shown) [Compound 343]
> 1000	O=C(NCC1(O)CCC1)C1CC(Cc2c(-c3ccc(F)cc3)[nH]c3c(F)cc(F)cc23)C1 (stereo not shown) [Compound 322]
> 1000	CC(NC(=O)C1CC(Cc2c(-c3ccc(F)cc3)[nH]c3c(F)cc(F)cc23)C1)c1ccn(C)n1 (mixture of isomers) [Compound 312]
> 1000	Cn1ccnc1CNC(=O)C1CC(Cc2c(-c3ccc(F)cc3)[nH]c3c(F)cc(F)cc23)C1 (stereo not shown) [Compound 338]
> 1000	O=C(NC1CCOC1)O[C@H]1C[C@H](c2c(-c3ccc(F)cc3)[nH]c3c(F)cc(F)cc32)C1 (stereo partly shown) [Compound 382]
> 1000	O=C(NCC1CCOCC1)C1CC(Cc2c(-c3ccc(F)cc3)[nH]c3c(F)cc(F)cc23)C1 (stereo not shown) [Compound 326]
> 1000	O=C(NCc1ccoc1)C1CC(Cc2c(-c3ccc(F)cc3)[nH]c3c(F)cc(F)cc23)C1 (stereo not shown) [Compound 317]
> 1000	CC(C)C[C@H](CO)NC(=O)C1CC(Cc2c(-c3ccc(F)cc3)[nH]c3c(F)cc(F)cc23)C1 (stereo partly shown) [Compound 302]
> 1000	O=C(N[C@H]1CCOC1=O)C1CC(Cc2c(-c3ccc(F)cc3)[nH]c3c(F)cc(F)cc23)C1 (stereo partly shown) [Compound 305]
